Laboratory results reported in ChEMBL document CHEMBL1629666, “Quinolone resistance in Neisseria gonorrhoeae: rapid genotyping of quinolone resistance-determining regions in gyrA and parC genes by melting curve analysis predicts susceptibility” (2009).
Values after ≈ are worked out from the molar mass of the structure shown.

How the values were obtained:
Neisseria gonorrhoeae [1] = test: Antimicrobial activity against Neisseria gonorrhoeae isolate IPC-NG16 harboring gyrA S91F, D95A and parC S87R mutant gene by Etest
Neisseria gonorrhoeae [2] = test: Antimicrobial activity against Neisseria gonorrhoeae isolate IPC-NG19 harboring gyrA S91F, D95A and parC S87N mutant gene by Etest
Neisseria gonorrhoeae [3] = test: Antimicrobial activity against Neisseria gonorrhoeae 92G0551 harboring gyrA S91Y mutant gene by Etest
Neisseria gonorrhoeae [4] = test: Antimicrobial activity against Neisseria gonorrhoeae 98G0872 harboring gyrA S91F, D95N and parC E91K mutant gene by Etest
Neisseria gonorrhoeae [5] = test: Antimicrobial activity against Neisseria gonorrhoeae isolate IPC-NG7 harboring gyrA S91F, D95G and parC S87N and E91Q mutant gene by Etest
Neisseria gonorrhoeae [6] = test: Antimicrobial activity against Neisseria gonorrhoeae 93G0065 harboring gyrA D95N mutant gene by Etest
Neisseria gonorrhoeae [7] = test: Antimicrobial activity against Neisseria gonorrhoeae WHO. C by Etest
Neisseria gonorrhoeae [8] = test: Antimicrobial activity against Neisseria gonorrhoeae 97G0319 harboring gyrA D95G mutant gene by Etest
Neisseria gonorrhoeae [9] = test: Antimicrobial activity against Neisseria gonorrhoeae 98G0867 harboring gyrA S91F, D95G and parC S87R mutant gene by Etest
Neisseria gonorrhoeae [10] = test: Antimicrobial activity against Neisseria gonorrhoeae 07 QA 06 harboring gyrA S91F mutant gene by Etest
Neisseria gonorrhoeae [11] = test: Antimicrobial activity against Neisseria gonorrhoeae isolate IPC-NG14 harboring gyrA S91F and D95A mutant gene by Etest
Neisseria gonorrhoeae [12] = test: Antimicrobial activity against Neisseria gonorrhoeae 97G0109 harboring gyrA S91F, D95G and parC D86N mutant gene by Etest
Neisseria gonorrhoeae [13] = test: Antimicrobial activity against Neisseria gonorrhoeae 95G0142 harboring gyrA S91F, D95N and parC S87R mutant gene by Etest
Neisseria gonorrhoeae [14] = test: Antimicrobial activity against Neisseria gonorrhoeae isolate IPC-NG13 harboring gyrA S91F, D95A and parC S87N and E91Q mutant gene by Etest
Neisseria gonorrhoeae [15] = test: Antimicrobial activity against Neisseria gonorrhoeae WHO. L harboring gyrA S91F, D95N and parC D86N and S88P mutant gene by Etest
Neisseria gonorrhoeae [16] = test: Antimicrobial activity against Neisseria gonorrhoeae 98G0798 harboring gyrA S91F mutant gene by Etest
Neisseria gonorrhoeae [17] = test: Antimicrobial activity against Neisseria gonorrhoeae 91G0316 harboring gyrA S91F mutant gene by Etest
Neisseria gonorrhoeae [18] = test: Antimicrobial activity against Neisseria gonorrhoeae isolate IPC-NG10 harboring gyrA S91F, D95G and parC S87R mutant gene by Etest
Neisseria gonorrhoeae [19] = test: Antimicrobial activity against Neisseria gonorrhoeae isolate IPC-NG3 harboring gyrA S91F and D95A mutant gene by Etest
Neisseria gonorrhoeae [20] = test: Antimicrobial activity against Neisseria gonorrhoeae 96G0142 harboring gyrA S91Y and parC E91Q mutant gene by Etest
Neisseria gonorrhoeae [21] = test: Antimicrobial activity against Neisseria gonorrhoeae WHO. O by Etest
Neisseria gonorrhoeae [22] = test: Antimicrobial activity against Neisseria gonorrhoeae isolate IPC-NG2 harboring gyrA S91F, D95Y and parC E91G mutant gene by Etest
Neisseria gonorrhoeae [23] = test: Antimicrobial activity against Neisseria gonorrhoeae 91G0622 harboring gyrA D95N mutant gene by Etest
Neisseria gonorrhoeae [24] = test: Antimicrobial activity against Neisseria gonorrhoeae WHO. M harboring gyrA S91F and D95G mutant gene by Etest
Neisseria gonorrhoeae [25] = test: Antimicrobial activity against Neisseria gonorrhoeae isolate IPC-NG6 harboring gyrA S91F, D95Y and parC E91G mutant gene by Etest
Neisseria gonorrhoeae [26] = test: Antimicrobial activity against Neisseria gonorrhoeae 97G0398 harboring gyrA S91F, D95G and parC S88P mutant gene by Etest
Neisseria gonorrhoeae [27] = test: Antimicrobial activity against Neisseria gonorrhoeae isolate IPC-NG1 harboring gyrA S91F, D95Y and parC E91G mutant gene by Etest
Neisseria gonorrhoeae [28] = test: Antimicrobial activity against Neisseria gonorrhoeae 98G0959 harboring gyrA D95N mutant gene by Etest
Neisseria gonorrhoeae [29] = test: Antimicrobial activity against Neisseria gonorrhoeae isolate IPC-NG9 harboring gyrA S91F, D95A and parC S87N and E91Q mutant gene by Etest
Neisseria gonorrhoeae [30] = test: Antimicrobial activity against Neisseria gonorrhoeae WHO. G harboring gyrA S91F mutant gene by Etest
Neisseria gonorrhoeae [31] = test: microbe, parasite or virus in culture; conditions: isolate 108 175 340
Description: Antimicrobial activity against Neisseria gonorrhoeae isolate 108 175 340 harboring gyrA S91F, D95G and parC E91G mutant gene by Etest

Neisseria gonorrhoeae [32] = test: Antimicrobial activity against Neisseria gonorrhoeae 07 QA 02 by Etest
Neisseria gonorrhoeae [33] = test: Antimicrobial activity against Neisseria gonorrhoeae isolate IPC-NG8 by Etest
Neisseria gonorrhoeae [34] = test: Antimicrobial activity against Neisseria gonorrhoeae WHO. P by Etest
Neisseria gonorrhoeae [35] = test: Antimicrobial activity against Neisseria gonorrhoeae isolate IPC-NG5 harboring gyrA S91F, D95A and parC E91G mutant gene by Etest
Neisseria gonorrhoeae [36] = test: Antimicrobial activity against Neisseria gonorrhoeae isolate IPC-NG18 harboring gyrA S91F, D95A and parC S87N mutant gene by Etest

## O=C(O)c1cn(C2CC2)c2cc(N3CCNCC3)c(F)cc2c1=O [CIPROFLOXACIN]
Neisseria gonorrhoeae [1]
  MIC: 1.5 µg/mL (≈ 4.53 µM)
Neisseria gonorrhoeae [2]
  MIC: > 32 µg/mL
Neisseria gonorrhoeae [3]
  MIC: 0.5 µg/mL (≈ 1.51 µM)
Neisseria gonorrhoeae [4]
  MIC: 8 µg/mL (≈ 24.1 µM)
Neisseria gonorrhoeae [5]
  MIC: > 32 µg/mL
Neisseria gonorrhoeae [6]
  MIC: 0.125 µg/mL (≈ 0.377 µM)
Neisseria gonorrhoeae [7]
  MIC: 0.016 µg/mL (≈ 0.0483 µM)
Neisseria gonorrhoeae [8]
  MIC: 0.125 µg/mL (≈ 0.377 µM)
Neisseria gonorrhoeae [9]
  MIC: 8 µg/mL (≈ 24.1 µM)
Neisseria gonorrhoeae [10]
  MIC: 0.38 µg/mL (≈ 1.15 µM)
Neisseria gonorrhoeae [11]
  MIC: 3 µg/mL (≈ 9.05 µM)
Neisseria gonorrhoeae [12]
  MIC: 2 µg/mL (≈ 6.04 µM)
Neisseria gonorrhoeae [13]
  MIC: 32 µg/mL (≈ 96.6 µM)
Neisseria gonorrhoeae [14]
  MIC: 12 µg/mL (≈ 36.2 µM)
Neisseria gonorrhoeae [15]
  MIC: 16 µg/mL (≈ 48.3 µM)
Neisseria gonorrhoeae [16]
  MIC: 1 µg/mL (≈ 3.02 µM)
Neisseria gonorrhoeae [17]
  MIC: 0.5 µg/mL (≈ 1.51 µM)
Neisseria gonorrhoeae [18]
  MIC: > 32 µg/mL
Neisseria gonorrhoeae [19]
  MIC: 3 µg/mL (≈ 9.05 µM)
Neisseria gonorrhoeae [20]
  MIC: 1 µg/mL (≈ 3.02 µM)
Neisseria gonorrhoeae [21]
  MIC: 0.016 µg/mL (≈ 0.0483 µM)
Neisseria gonorrhoeae [22]
  MIC: > 32 µg/mL
Neisseria gonorrhoeae [23]
  MIC: 0.125 µg/mL (≈ 0.377 µM)
Neisseria gonorrhoeae [24]
  MIC: 2 µg/mL (≈ 6.04 µM)
Neisseria gonorrhoeae [25]
  MIC: > 32 µg/mL
Neisseria gonorrhoeae [26]
  MIC: 2 µg/mL (≈ 6.04 µM)
Neisseria gonorrhoeae [27]
  MIC: > 32 µg/mL
Neisseria gonorrhoeae [28]
  MIC: 0.25 µg/mL (≈ 0.754 µM)
Neisseria gonorrhoeae [29]
  MIC: 16 µg/mL (≈ 48.3 µM)
Neisseria gonorrhoeae [30]
  MIC: 0.25 µg/mL (≈ 0.754 µM)
Neisseria gonorrhoeae [31]
  MIC: 4 µg/mL (≈ 12.1 µM)
Neisseria gonorrhoeae [32]
  MIC: 0.023 µg/mL (≈ 0.0694 µM)
Neisseria gonorrhoeae [33]
  MIC: 0.016 µg/mL (≈ 0.0483 µM)
Neisseria gonorrhoeae [34]
  MIC: 0.016 µg/mL (≈ 0.0483 µM)
Neisseria gonorrhoeae [35]
  MIC: > 32 µg/mL
Neisseria gonorrhoeae [36]
  MIC: > 32 µg/mL
